Data set [1] relates to GABAA sPSCs in Medium Spiny Neurons (MSNs) of the striatum in Pink 1 knockout mice. The conditions noted are these: Dehorter et al 2012; cited from earlier work.
Data set [2] has the same test system. Kind of data set: Whole-cell voltage-clamp recordings of spontaneous GABAA currents in basal ganglia slices before and during bath application of bumetanide. It counts as cell-based, mouse. The conditions noted are these: for effect on the giant GABAergic pattern (in words): 10 μM; for area gigantic pattern (% of the total area) / giant GABAA sPSCs share of total current charge, Mean: before bumetanide 38±5%; for Giants Amplitude, Mean: P=0.01 vs before bumetanide. As to the method:
Pink 1 knockout (Pink1 −/−) mouse is a genetic model of Parkinson's disease.
Pink1 −/− mutant mice of either sex at age 5-7 months were intracardially perfused with the choline solution (see below) at 4° C. and sacrificed by decapitation under halothane anesthesia. Oblique parasagittal slices (380 μm thick) were cut with an angle of 10±2° to obtain the basal ganglia slice (BGS) as described in (Beurrier et al., 2006). For the slicing procedure, the ice-cold oxygenated solution contained (in mM) 110 choline, 2.5 KCl, 1.25 NaH2PO4, 7 MgCl2, 0.5 CaCl2, 25 NaHCO3, 7 glucose. During the recovery period, BGS were placed at room temperature with standard artificial cerebrospinal fluid (ACSF) saturated with 95% O2 5% CO2 and containing (in mM): 126 NaCl, 3.5 KCl, 1.2 NaH2PO4, 1.3 MgCl2, 2 CaCl2, 25 NaHCO3, 11 glucose.
All recordings were made at 32° C. Cells were visualized with infrared-differential interference optics (Axioskop2, Zeiss). For whole-cell voltage-clamp recordings of postsynaptic GABAA currents, the pipette (6-10 MΩ) contained (in mM): 128.5 K-gluconate, 11.5 KCl, 1 CaCl2, 10 EGTA, 10 HEPES, 2.5 MgATP and 0.3 NaGTP, pH 7.32, 280 mOsm. The KGlu pipette solutions gave a reversal potential for chloride close to −63 mV at 35° C. Biocytin (Sigma, 5 mg/ml) was added to the pipette solution and osmolarity corrected when necessary. We performed patch-clamp recordings in whole cell configuration using the Digidata 1344A interface, the Multiclamp 700A amplifier and PClamp8 software (Axon Instruments, Foster City, Calif.). We identified medium spiny neurons (MSNs) during recordings based on their typical rectification during hyperpolarizing steps and their firing delay in response to depolarizing steps. MSNs were also identified by their morphological characteristics after the recording session (see immunocytochemistry). We measured spontaneous GABAA currents (GABAA sPSCs) from MSNs in voltage clamp mode at the reversal potential for glutamatergic (+10 mV) events (Cossart et al., 2000). These currents were stored on Pclamp8 (Axon Instruments, Foster City, Calif., USA) and analyzed off-line with Mini Analysis program (Synaptosoft 6.0, CA, USA), Clampfit 9.2, Origin 5.0 and Autosignal 1.7 to determine the frequency and amplitude of GABAA sPSCs. All detected currents were then visually inspected to reject artefactual events.
We defined as a burst a minimum of five sPSCs associated with a baseline elevation. More than five giant events and three bursts were required during the three min analysis for the pattern to be deemed “oscillatory”. The current charge was automatically calculated by the Mini Analysis Software as the area under the curve value (taking the onset, peak and decay time points as references for each event).
GABAA sPSCs were recorded from identified MSNs before and during bath application of Bumetanide.
For statistical comparison of data we performed paired t-tests. Error bars indicate SEM. ***P<0.001; ns (non-significant).

Data set [3] relates to patient suffering from Parkinson's disease. The conditions noted are these: for UPDRS motor severity score (III) in the OFF stage: after 2 months of bumetanide, last four weeks at 5 mg/d; for UPDRS II OFF (activities of daily leaving, worst condition) score: at the end of the study. The text has this: A person, suffering from a 10-year history of Parkinson's disease was included in an open-labeled trial assessing the antiparkinsonian effects of bumetanide. They gave their informed consent to participate. The patient fulfilled the modified Queen's Square Brain Bank criteria of Parkinson's disease (Berardelli et al., 2013). […] Parkinson's disease was at the stage of motor fluctuation and dyskinesia. The OFF periods (bad mobility) lasted for an average of 25-50% of the awakened time. Dyskinesia was mild and intermittent. There was no marked balance impairment or cognitive decline. Antiparkinsonian treatment consisted in: L-DOPA 1,200 mg/d (7 intakes/d), ropinirole 4 mg/d, rasagiline 1 mg/d, tolcapone 300 mg/d. They also received mianserine, citalopram and alprazolam for concomitant anxiety and depression. Bumetanide was progressively titrated up to 3 mg/d (once daily) received for a month. […] The patient was assessed before, 1 month and 2 months after the initiation of bumetanide. At each visit, the patient was asked about any side effects having occurred since the last visit. […] The antiparkinsonian treatment was unchanged during the study. A person, having a 8-year history of Parkinson's disease was included in an open-labeled trial assessing the antiparkinsonian effects of bumetanide. The OFF periods (bad mobility) lasted for an average of 25-50% of the awakened time. Antiparkinsonian treatment consisted in: L-DOPA 625 mg/day (5 intakes/day), entacapone 1,000 mg/day, ropinirole 12 mg/day. Bumetanide: was progressively titrated up to 3 mg/day (once daily) received for a month. […] The patients were assessed before, 1 month and 2 months after the initiation of bumetanide. At each visit, the patient was asked about any side effects having occurred since the last visit. […] The antiparkinsonian treatment was unchanged during the study.

Setting [4] is: bumetanide 10 μM, 15-30 min, Pink1 KO MSNs.
[5] abbreviates: bumetanide 10 μM, 15-30 min, Pink1 KO MSNs, listed as Bume.
The mark [6] stands for this setting: bumetanide 10 μM, 15-30 min, n=42 events.
[7] abbreviates: bumetanide 10 μM, 15-30 min, three min analysis.

Molecules are shown by their SMILES. Read-outs that look alike come from different tables or passages of the source.

Consider `N[C@@H](Cc1ccc(O)c(O)c1)C(=O)O` [L Dopa], for which, in data set [1], the “effect on the gigantic current pattern (in words)” value is “alleviate this pattern”.

With `CCCCNc1cc(C(=O)O)cc(S(N)(=O)=O)c1Oc1ccccc1` [Bumetanide, bumetanide], the “effect on the giant GABAergic pattern (in words)” value in data set [2] (15-30 min, Pink1 KO MSNs) is “blocked the giant pattern”; in data set [2] (15-30 min, Pink1 KO MSNs, listed as bumetanide) it was “block these gigantic currents completely”. Besides, the “time of treatment after which the effect was stable” value in data set [2] (bath application, final concentration 10 μM) is 15 min. In addition, in data set [2] (bumetanide 10 μM bath, 15-30 min, Pink1 KO MSNs with giant pattern, VH=+10 mV), the “TOTAL AREA, Mean” value was 290 pA · ms. The “Pink1 KO MSNs showing giant GABAA PSCs in which the block was observed” value in data set [2] (bumetanide 10 μM, 15-30 min) is 10/10. Besides, in data set [2] (bumetanide 10 μM, 15-30 min), the “effect on bursts of GABAA sPSCs (in words)” value was “totally disappeared”. Also, in data set [2] (bumetanide 10 μM, 15-30 min, P=0.02 vs before bumetanide), the “mean frequency of single giant GABAA sPSCs” value is 0.10±0.05 Hz. Moreover, the “Tonic pattern: Amplitude of GABAA PSCs, Mean” value in data set [2] (setting [4]) is 36±4 pA; in data set [2] (setting [5]), 36.0 pA. The “Tonic pattern: Frequency of GABAA PSCs, Mean” value is 2.9±0.5 Hz in data set [2] (setting [4]) and 2.9 Hz in data set [2] (setting [5]). Further, the “mean total current charge” value in data set [2] (bumetanide 10 μM, 15-30 min, Pink1 KO MSNs, before bumetanide 566±74) is reported as 290±70 nA·ms. The “basal events between giants, share of the total current charge” value in data set [2] (bumetanide 10 μM, 15-30 min, before 62±5%, P=0.0003) is given as 90±3%. For the same compound, the “area gigantic pattern (% of the total area) / giant GABAA sPSCs share of total current charge, Mean” value in data set [2] (bumetanide 10 μM, 15-30 min, P=0.0003) worked out at 11.7±3.9%; in data set [2] (bumetanide 10 μM, 15-30 min, P=0.0003, listed as Bume) it was 11.7%. Moreover, the “range of amplitude of single giant GABAA sPSCs” value in data set [2] (setting [6]) was 203-593 pA. For the same compound, the “Giants Amplitude, Mean” value in data set [2] (setting [6]) amounted to 338.2±22.5 pA; in data set [2] (bumetanide 10 μM, 15-30 min, n=42 events, listed as Bume), 338.2 pA. Also, the “Giants Frequency, Mean” value in data set [2] (bumetanide 10 μM, 15-30 min, table value, unit not given) amounted to 0.10. For the same compound, the “n bursts, Mean” value in data set [2] (setting [7]) was found to be 0.2. Further, the “n giants (>200 pA), Mean” value in data set [2] (setting [7]) is 5.6. The “decrease of the mean total current charge” value in data set [2] (bumetanide 10 μM, 15-30 min vs before bumetanide, P=0.0002) is given as 49%. Besides, in data set [2] (bumetanide 10 μM, versus 237 before bumetanide), the “number of individual giant GABAA sPSCs still present during the three-minutes sequence analyzed” value worked out at 42 events. In addition, in data set [3] (human, in vivo), the dyskinesia entry is “no worsening”. The “overall improvement evaluated by the patient and the caregiver” value in data set [3] (patient 1) is given as “about 30%”. In data set [3] (patient 1, 2 months vs before treatment), the “improvement (decrease) of UPDRS motor (III) score in the OFF stage” value turned out to be 34%. Further, the “UPDRS motor severity score (III) in the OFF stage” value in data set [3] (patient 1, 44 before treatment) is reported as 29; in data set [3] (patient 2, 25 before treatment), 11. Moreover, the “motor condition / Parkinsonism as noticed by the patient and their caregiver” value in data set [3] (patient 1, after 2 weeks at 5 mg/d) is “marked improvement”. The OFF time duration result in data set [3] (patient 1, after 2 weeks at 5 mg/d, baseline 25-50%) was “less than 25 % of the awakened time”. The “UPDRS II OFF (activities of daily leaving, worst condition) score” value in data set [3] (patient 1, 30 at baseline) is listed as 18; in data set [3] (patient 2, 15 at baseline), 10. Besides, the “improvement (decrease) of UPDRS II in the worst condition” value in data set [3] (patient 1, end of study vs baseline) amounted to 40%. The “UPDRS II in the best condition” value is listed as “unchanged” in data set [3] (patient 1, score 0) and “unchanged” in data set [3] (patient 2, 2 vs 3). In addition, the “improvement of UPDRS motor severity score (III) in the OFF stage” value in data set [3] (patient 2, 2 months vs before treatment) worked out at 56%. The “improvement of UPDRS II in the worst condition” value in data set [3] (patient 2, end of study vs baseline) worked out at 33%.

(Values after patent publication US9974763B2, “Modulators of intracellular chloride concentration for treating neurodegenerative diseases with Parkinsonian Syndromes” (B & A THERAPEUTICS, priority 2013, dated 2018).)
